Peptide text beside a SMILES is read from it.
How the values were obtained:
[1] = Toxicity in BALB/C nude mouse model xenografted with human HepG2 cells assessed as damage in kidney at 1 to 2 uM/kg, iv administered every two days for 21 days along with 250 mW/cm2 light irradiation at 660 nm for 10 mins at 1 hr post-compound administration by H and E staining based analysis; type: organism-based; details: in vivo, 505.17 h, dose 1-2 µM/Kg, time 505.166 hrs
[2] = Toxicity in BALB/C nude mouse model xenografted with human HepG2 cells assessed as damage in lung at 1 to 2 uM/kg, iv administered every two days for 21 days along with 250 mW/cm2 light irradiation at 660 nm for 10 mins at 1 hr post-compound administration by H and E staining based analysis; type: organism-based; details: in vivo, 505.17 h, dose 1-2 µM/Kg, time 505.166 hrs
[3] = Toxicity in BALB/C nude mouse model xenografted with human HepG2 cells assessed as change in spleen weight at 1 to 2 uM/kg, iv administered every two days for 21 days along with 250 mW/cm2 light irradiation at 660 nm for 10 mins at 1 hr post-compound administration; type: organism-based; details: in vivo, 505.17 h, dose 1-2 µM/Kg, time 505.166 hrs
[4] = Toxicity in BALB/C nude mouse model xenografted with human HepG2 cells assessed as damage in heart at 1 to 2 uM/kg, iv administered every two days for 21 days along with 250 mW/cm2 light irradiation at 660 nm for 10 mins at 1 hr post-compound administration by H and E staining based analysis; type: organism-based; details: in vivo, 505.17 h, dose 1-2 µM/Kg, time 505.166 hrs
[5] = Antiproliferative activity against human HUVEC cells under 10 J/cm2 light irradiation at 660 nm by CCK8 assay; type: toxicity, cell-based

SMILES: C=Cc1c(C)c2cc3nc(c(CC(=O)O)c4[nH]c(cc5nc(cc1[nH]2)C(C)=C5CC)c(C)c4C(=O)NCCCC(=O)N[C@@H](CC(=O)O)C(=O)N[C@@H](Cc1cnc[nH]1)C(=O)N[C@@H](CC(C)C)C(=O)N[C@@H](C)C(=O)N[C@@H](CO)C(=O)N[C@@H](CC(C)C)C(=O)N[C@@H](Cc1c[nH]c2ccccc12)C(=O)N[C@@H](Cc1c[nH]c2ccccc12)C(=O)NCC(=O)N[C@H](C(=O)N[C@@H](CCC(=O)O)C(=O)N[C@@H](CC(C)C)C(=O)O)[C@@H](C)O)[C@@H](CCC(=O)O)[C@@H]3C (HELM PEPTIDE1{[C=Cc1c(C)c2cc3nc(c(CC(=O)O)c4[nH]c(cc5nc(cc1[nH]2)C(C)=C5CC)c(C)c4C(=O)[*:2])[C@@H](CCC(=O)O)[C@@H]3C].[O=C(CCCN[*:1])[*:2]].D.H.L.A.S.L.W.W.G.T.E.L}$$$$V2.0)
- Activity [1]: Non-Toxic
- Activity [2]: Non-Toxic
- Activity [3]: Non-Toxic
- Activity [4]: Non-Toxic
- IC50 [5]: > 10 µM

From ChEMBL document CHEMBL5537154, “Smart glypican-3-targeting peptide-chlorin e6 conjugates for targeted photodynamic therapy of hepatocellular carcinoma” (Eur J Med Chem, 2024)
